Reference: publication PMC12920294, “Optimizing uPAR-targeting radiopeptides for improved tissue distribution: progress towards radionuclide therapy” (European Journal of Nuclear Medicine and Molecular Imaging, 2025)
Read-outs that look alike come from different tables or passages of the source.

Experiments:
[1] = assay type: in vitro ADME; settings: 1 µM
Description: The ^177Lu-labeled peptides (50 MBq/nmol) were incubated in mouse or human blood plasma (10 MBq/200 µL) over an incubation period of 24 h at 37 °C. Aliquots and control samples of the radiopeptides diluted in saline were analyzed after 1 h, 4 h and 24 h using thin layer chromatography (TLC) as previously reported (Supplementary Material). The distribution coefficients (logD values) of the ^177Lu-labeled peptides (50 MBq/nmol) were determined using a shake-flask method according to a previously published procedure (Supplementary Material).
Methods: A sample of each radiopeptide (50 MBq/nmol) was added to mouse blood plasma (Lot: 32321, Rockland Immunochemicals Inc., USA) or to human blood plasma (Stiftung Blutspende SRK Aargau-Solothurn, Switzerland) to obtain an activity concentration of 10 MBq/200 µL. The test samples were incubated at 37 °C for up to 24 h. Control samples referred to the radiopeptides which were instead diluted in saline at an activity concentration of 10 MBq/200 µL. Aliquots of each sample (2 µL, ~100 kBq) were taken after 1 h, 4 h and 24 h and investigated by means of thin layer chromatography (TLC). The employed method involved reversed-phase TLC plates (MERCK Analytical Chromatography, TLC Silica gel 60 RP-18 F254s) as stationary phase and ACN/citrate buffer (3:7; v/v; pH 5.5) as mobile phase. After the eluent reached the front line, the TLC plates were dried and exposed to a phosphor screen (Super resolution screen PSR10450013, PerkinElmer) for 1 min. The respective screen was developed using a storage phosphor system (Cyclone Plus, PerkinElmer) and analyzed using the OptiQuant Software (version 5.0, Bright Instrument Co Ltd., PerkinElmer).

[2] = system: HEK-uPAR xenograft-bearing mice; settings: mouse, in vivo
Description: Single-photon emission computed tomography/computed tomography (SPECT/CT) experiments were performed using a small-animal SPECT/CT camera (NanoSPECT/CTTM, Mediso Medical Imaging Systems, Budapest, Hungary) as described previously (Supplementary Material). HEK-uPAR xenografted nude mice were scanned at 1 h, 4 h, 24 h […] after injection of the respective radiopeptide (25 MBq, 0.5 nmol, in 100 μL 0.9% NaCl containing 0.05% bovine serum albumin (BSA)) The images were prepared using VivoQuant post-processing software (version 3.5, inviCRO Imaging Services and Software, Boston, USA). A Gauss post-reconstruction filter (full width at half maximum, 1.0 mm) was applied and the scale of activity was set as indicated on the images (minimum value = 0.2 Bq/voxel, maximum value = 20 Bq/voxel). Methods: SPECT/CT experiments were performed with CD1 nude mice (Crl:CD1-Foxn1^nu) approximately 3-9 weeks after HEK-uPAR cell inoculation. The mice were scanned 1 h, 4 h and 24 h post injection (p.i.) of the respective radiopeptide (25 MBq, 0.5 nmol, 100 μL, diluted in 0.9% NaCl containing 0.05% bovine serum albumin (BSA)). Imaging studies were performed using a four-head, multiplexing, multi-pinhole small-animal SPECT/CT camera (NanoSPECT/CT^TM, Mediso Medical Imaging Systems, Budapest, Hungary). Each head was outfitted with a tungsten-based aperture of nine 1.4 mm-diameter pinholes and a thickness of 10 mm. CT scans of 7-9 min duration were followed by SPECT scans of 45-50 min. The images were acquired using Nucline Software (version 10.2, Mediso Ltd., Budapest, Hungary). The real-time CT reconstruction used a cone-beam filtered backprojection. The reconstruction of SPECT data was performed with HiSPECT software (version 1.4.3049, […] GmbH, Göttingen, Germany) using γ-energies of 56.1 keV (± 10%), 112.9 keV (± 10%) and 208.4 keV (± 10%) for lutetium-177. The images were prepared using VivoQuant post-processing software (version 3.5, inviCRO Imaging Services and Software, Boston, USA). A Gauss post-reconstruction filter (full width at half maximum, 1.0 mm) was applied and the scale of activity was set as indicated on the images (minimum value = 0.2 Bq/voxel, maximum value = 20 Bq/voxel).

[3] = system: HEK-uPAR xenograft-bearing mice; settings: mouse, in vivo; remark: listed apart in the source
Description: (§1) HEK-uPAR xenografted mice were injected with the respective radiopeptide (5 MBq, 0.5 nmol/mouse, 100 µL 0.9% NaCl containing 0.05% BSA) and sacrificed at 4 h and 24 h after injection. […] The tissues and organs of interest were collected, weighed and counted for activity using a γ-counter (Wallac Wizard 1480, PerkinElmer). […] The results were presented as the average ± SD of n = 3 mice. The time-activity curves were determined for the uptake of [^177Lu]Lu-DOTA-AE105 and [^177Lu]Lu-uPAR-11 in the blood, HEK-uPAR xenografts, kidneys and liver based on non-decay corrected biodistribution data. For the blood, the initial uptake (t = 0) was set as 50% IA/g assuming a blood volume of 2 mL for CD1 nude mice. The initial uptake value (t = 0) for all other organs and tissues was set as 0% IA/g. […] The area under the curves over 48 h after injection (AUC0h→48 h) was calculated using GraphPad Prism software (version 10.1.1). Statistical analyses were performed by applying a one-way ANOVA test with a Dunnet’s multiple comparison post‐test to compare the data of the new radiopeptides with those of [^177Lu]Lu-DOTA-AE105 and a Tukey’s multiple comparisons post‐test to compare the novel radiopeptides among them. A p-value of < 0.05 was considered a statistically significant difference using GraphPad Prism software (version 10.1.1).

in vivo = settings: CD1 nude, mouse, 0.5 nmol/mouse, total radioactivity
Description: as §1

Human blood plasma stability, intact radiopeptide ([1]; 1 h): 100 ± 1% | Mouse blood plasma stability, intact radiopeptide ([1]; 1 h): 100 ± 1% | Human blood plasma stability, intact radiopeptide ([1]; 4 h): 99 ± 1% | Mouse blood plasma stability, intact radiopeptide ([1]; 4 h): 99 ± 1% | Human blood plasma stability, intact radiopeptide ([1]; 24 h): 96 ± 1% | Mouse blood plasma stability, intact radiopeptide ([1]; 24 h): 94 ± 2% | Xgrft-to-liver ratio [3]: 6.5 ± 1.7 | tissue uptake at 4 h (in vivo; Blood uptake): 4.5 ± 0.5 %ID/g | tissue uptake at 24 h (in vivo; Blood uptake): 0.04 ± 0.01 %ID/g | tissue uptake at 4 h (in vivo; Bone uptake): 0.66 ± 0.05 %ID/g | tissue uptake at 24 h (in vivo; Bone uptake): 0.12 ± 0.03 %ID/g | tissue uptake at 4 h (in vivo; Brain uptake): 0.1 ± 0.02 %ID/g | tissue uptake at 24 h (in vivo; Brain uptake): < 0.03 %ID/g | tissue uptake at 4 h (in vivo; HEK-uPAR xenograft uptake): 12 ± 1 %ID/g | tissue uptake at 24 h (in vivo; HEK-uPAR xenograft uptake): 3.1 ± 0.8 %ID/g | tissue uptake at 4 h (in vivo; Heart uptake): 1.6 ± 0.2 %ID/g | tissue uptake at 24 h (in vivo; Heart uptake): 0.13 ± 0.01 %ID/g | tissue uptake at 4 h (in vivo; Intestines uptake): 0.74 ± 0.15 %ID/g | tissue uptake at 24 h (in vivo; Intestines uptake): 0.16 ± 0.03 %ID/g | tissue uptake at 4 h (in vivo; Kidneys uptake): 3.9 ± 0.6 %ID/g | tissue uptake at 24 h (in vivo; Kidneys uptake): 2 ± 0.3 %ID/g | tissue uptake at 4 h (in vivo; Liver uptake): 1.6 ± 0.2 %ID/g | tissue uptake at 24 h (in vivo; Liver uptake): 0.5 ± 0.11 %ID/g | tissue uptake at 4 h (in vivo; Lung uptake): 2.6 ± 0.4 %ID/g | tissue uptake at 24 h (in vivo; Lung uptake): 0.27 ± 0.06 %ID/g | tissue uptake at 4 h (in vivo; Muscle uptake): 0.41 ± 0.1 %ID/g | tissue uptake at 24 h (in vivo; Muscle uptake): 0.05 ± 0.01 %ID/g | tissue uptake at 4 h (in vivo; Pancreas uptake): 0.61 ± 0.1 %ID/g | tissue uptake at 24 h (in vivo; Pancreas uptake): 0.09 ± 0.02 %ID/g | tissue uptake at 4 h (in vivo; Salivary glands uptake): 1.2 ± 0.2 %ID/g | tissue uptake at 24 h (in vivo; Salivary glands uptake): 0.21 ± 0.03 %ID/g | tissue uptake at 4 h (in vivo; Spleen uptake): 0.93 ± 0.09 %ID/g | tissue uptake at 24 h (in vivo; Spleen uptake): 0.51 ± 0.23 %ID/g | tissue uptake at 4 h (in vivo; Stomach uptake): 0.67 ± 0.11 %ID/g | tissue uptake at 24 h (in vivo; Stomach uptake): 0.12 ± 0.03 %ID/g
Compound: Cc1ccc(CCCC(=O)NCCOCCOCCOCCC(=O)NCCCC[C@H](NC(=O)CN2CCN(CC(=O)O)CCN(CC(=O)O)CCN(CC(=O)O)CC2)C(=O)N[C@@H](CC(=O)O)C(=O)N[C@@H](CC2CCCCC2)C(=O)N[C@@H](Cc2ccccc2)C(=O)N[C@H](CO)C(=O)N[C@H](CCCNC(=N)N)C(=O)N[C@@H](Cc2ccc(O)cc2)C(=O)N[C@@H](CC(C)C)C(=O)N[C@@H](Cc2c[nH]c3ccccc23)C(=O)N[C@@H](CO)C(N)=O)cc1 [[^177Lu]Lu-uPAR-15, metal not drawn]
SPECT/CT: accumulation in HEK-uPAR xenograft [2]: highest at 1 h p.i. and relatively well retained over the following hours
